The conditions of the data set: 101.33 kPa, Liquid, Falling or rolling sphere viscometry.

Numbers after ± are expanded uncertainties.

`C[N+](C)(C)CCO.NCC(=O)[O-]` [2-hydroxy-N,N,N-trimethylethanaminium glycinate]: the viscosity is, setting by setting: (308.15 K) 84.3 ± 1.6 mPa·s; (318.15 K) 29.4 ± 0.7 mPa·s; (328.15 K) 14.3 ± 0.6 mPa·s; (338.15 K) 7.2 ± 0.3 mPa·s.

The values are drawn from the NIST ThermoML archive (doi:10.1016/j.fluid.2019.05.006).
